{
  "source": "patent US12281080B2",
  "about": "“Quinoline-based compounds and methods of inhibiting CDK8/19” (University of South Carolina, priority 2018, dated 2025)",
  "assay_in_all_cases": "KINOMEscan scanMAX",
  "key": {"CAMK2D": {"target": "CAMK2D (Homo sapiens (Human), UniProt Q13557)", "assay_type": "binding", "details": "2000 nM; read-out: Percent Control"}, "CDK11 (CDK19)": {"target": "CDK11 (CDK19) (Homo sapiens (Human), UniProt Q9BWU1)", "sequence (Q9BWU1 whole entry)": "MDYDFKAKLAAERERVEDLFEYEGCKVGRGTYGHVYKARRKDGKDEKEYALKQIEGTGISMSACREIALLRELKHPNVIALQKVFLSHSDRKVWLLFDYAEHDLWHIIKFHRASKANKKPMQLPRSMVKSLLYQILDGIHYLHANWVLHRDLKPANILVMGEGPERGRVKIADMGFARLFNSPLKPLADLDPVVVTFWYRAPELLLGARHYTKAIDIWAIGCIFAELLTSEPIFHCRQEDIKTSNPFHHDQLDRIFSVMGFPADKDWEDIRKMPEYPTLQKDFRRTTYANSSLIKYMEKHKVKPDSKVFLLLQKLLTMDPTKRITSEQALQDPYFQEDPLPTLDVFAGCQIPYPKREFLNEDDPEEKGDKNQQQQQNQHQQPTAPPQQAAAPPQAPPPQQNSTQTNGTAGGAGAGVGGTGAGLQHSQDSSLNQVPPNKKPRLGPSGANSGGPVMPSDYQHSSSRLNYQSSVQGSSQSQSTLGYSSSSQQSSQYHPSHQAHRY", "assay_type": "binding", "details": "2000 nM; read-out: Percent Control"}, "CDK8": {"target": "CDK8 (Homo sapiens (Human), UniProt P49336)", "assay_type": "binding", "details": "2000 nM; read-out: Percent Control"}, "CDK9": {"target": "CDK9 (Homo sapiens (Human), UniProt P50750)", "sequence (P50750 whole entry)": "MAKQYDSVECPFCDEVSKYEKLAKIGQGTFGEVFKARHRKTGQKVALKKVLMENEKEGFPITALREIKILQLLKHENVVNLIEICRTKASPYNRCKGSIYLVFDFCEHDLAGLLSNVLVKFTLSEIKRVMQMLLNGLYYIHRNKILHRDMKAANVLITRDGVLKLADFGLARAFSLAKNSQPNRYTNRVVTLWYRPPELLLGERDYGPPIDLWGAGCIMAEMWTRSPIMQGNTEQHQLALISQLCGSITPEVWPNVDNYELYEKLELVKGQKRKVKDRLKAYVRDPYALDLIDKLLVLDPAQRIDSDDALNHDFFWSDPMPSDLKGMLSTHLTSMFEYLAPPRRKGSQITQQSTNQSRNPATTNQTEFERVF", "assay_type": "binding", "details": "2000 nM; read-out: Percent Control"}, "CSF1R": {"target": "CSF1R (Homo sapiens (Human), UniProt P07333)", "assay_type": "binding", "details": "2000 nM; read-out: Percent Control"}, "CSNK1A1L": {"target": "CSNK1A1L (Homo sapiens (Human), UniProt Q8N752)", "assay_type": "binding", "details": "2000 nM; read-out: Percent Control"}, "DMPK2 (CDC42BPG)": {"target": "DMPK2 (CDC42BPG) (Homo sapiens (Human), UniProt Q6DT37)", "assay_type": "binding", "details": "2000 nM; read-out: Percent Control"}, "EGFR(G719C)": {"target": "EGFR(G719C) (Homo sapiens (Human), UniProt P00533, G719C)", "sequence (P00533 25-1210 G719C)": "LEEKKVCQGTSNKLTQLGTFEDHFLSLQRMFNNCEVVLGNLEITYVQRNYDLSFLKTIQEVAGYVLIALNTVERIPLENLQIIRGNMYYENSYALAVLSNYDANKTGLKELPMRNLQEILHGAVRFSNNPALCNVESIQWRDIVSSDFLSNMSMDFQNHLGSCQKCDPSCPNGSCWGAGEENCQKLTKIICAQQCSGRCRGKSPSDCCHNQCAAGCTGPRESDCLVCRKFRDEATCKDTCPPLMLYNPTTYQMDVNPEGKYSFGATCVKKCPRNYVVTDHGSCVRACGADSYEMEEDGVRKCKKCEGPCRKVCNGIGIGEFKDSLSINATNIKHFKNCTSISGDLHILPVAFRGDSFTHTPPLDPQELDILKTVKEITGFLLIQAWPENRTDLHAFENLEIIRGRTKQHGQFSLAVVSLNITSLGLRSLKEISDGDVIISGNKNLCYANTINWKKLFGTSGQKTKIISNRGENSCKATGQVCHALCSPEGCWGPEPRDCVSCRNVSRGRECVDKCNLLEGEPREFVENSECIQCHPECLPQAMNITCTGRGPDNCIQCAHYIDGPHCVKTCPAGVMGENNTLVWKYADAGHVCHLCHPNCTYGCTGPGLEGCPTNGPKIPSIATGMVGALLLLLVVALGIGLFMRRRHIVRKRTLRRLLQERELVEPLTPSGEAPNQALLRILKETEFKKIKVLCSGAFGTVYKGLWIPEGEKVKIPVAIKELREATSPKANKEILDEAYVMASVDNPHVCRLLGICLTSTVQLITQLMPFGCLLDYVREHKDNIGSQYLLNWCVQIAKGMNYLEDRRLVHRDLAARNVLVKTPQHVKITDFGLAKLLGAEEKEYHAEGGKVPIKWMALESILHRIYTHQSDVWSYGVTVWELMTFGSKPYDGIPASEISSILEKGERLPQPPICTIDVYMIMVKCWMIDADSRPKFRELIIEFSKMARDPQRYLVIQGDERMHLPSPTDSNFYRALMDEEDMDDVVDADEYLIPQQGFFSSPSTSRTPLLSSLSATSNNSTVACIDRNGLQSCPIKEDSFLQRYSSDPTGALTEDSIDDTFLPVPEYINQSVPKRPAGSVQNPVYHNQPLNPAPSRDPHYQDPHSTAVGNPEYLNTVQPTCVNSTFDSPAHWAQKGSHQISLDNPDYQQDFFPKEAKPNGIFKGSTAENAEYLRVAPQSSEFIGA", "assay_type": "binding", "details": "2000 nM; read-out: Percent Control"}, "[1]": {"target": "EGFR(L747-E749del, A750P) (Homo sapiens (Human), UniProt P00533, A750P/DEL747-749)", "assay_type": "binding", "details": "2000 nM; read-out: Percent Control"}, "EPHA5": {"target": "EPHA5 (Homo sapiens (Human), UniProt P54756)", "assay_type": "binding", "details": "2000 nM; read-out: Percent Control"}, "EPHA6": {"target": "EPHA6 (Homo sapiens (Human), UniProt Q9UF33)", "assay_type": "binding", "details": "2000 nM; read-out: Percent Control"}, "EPHB3": {"target": "EPHB3 (Homo sapiens (Human), UniProt P54753)", "assay_type": "binding", "details": "2000 nM; read-out: Percent Control"}, "ERBB3": {"target": "ERBB3 (Homo sapiens (Human), UniProt P21860)", "assay_type": "binding", "details": "2000 nM; read-out: Percent Control"}, "ERBB4": {"target": "ERBB4 (Homo sapiens (Human), UniProt Q15303)", "assay_type": "binding", "details": "2000 nM; read-out: Percent Control"}, "FAK (PTK2)": {"target": "FAK (PTK2) (Homo sapiens (Human), UniProt Q05397)", "assay_type": "binding", "details": "2000 nM; read-out: Percent Control"}, "FLT3(ITD, D835V)": {"system": "FLT3(ITD, D835V)", "assay_type": "binding, human", "details": "2000 nM"}, "FLT3(ITD, F691L)": {"system": "FLT3(ITD, F691L)", "assay_type": "binding, human", "details": "2000 nM"}, "GRK7": {"target": "GRK7 (Homo sapiens (Human), UniProt Q8WTQ7)", "assay_type": "binding", "details": "2000 nM; read-out: Percent Control"}, "HASPIN (GSG2)": {"target": "HASPIN (GSG2) (Homo sapiens (Human), UniProt Q8TF76)", "sequence (Q8TF76 whole entry)": "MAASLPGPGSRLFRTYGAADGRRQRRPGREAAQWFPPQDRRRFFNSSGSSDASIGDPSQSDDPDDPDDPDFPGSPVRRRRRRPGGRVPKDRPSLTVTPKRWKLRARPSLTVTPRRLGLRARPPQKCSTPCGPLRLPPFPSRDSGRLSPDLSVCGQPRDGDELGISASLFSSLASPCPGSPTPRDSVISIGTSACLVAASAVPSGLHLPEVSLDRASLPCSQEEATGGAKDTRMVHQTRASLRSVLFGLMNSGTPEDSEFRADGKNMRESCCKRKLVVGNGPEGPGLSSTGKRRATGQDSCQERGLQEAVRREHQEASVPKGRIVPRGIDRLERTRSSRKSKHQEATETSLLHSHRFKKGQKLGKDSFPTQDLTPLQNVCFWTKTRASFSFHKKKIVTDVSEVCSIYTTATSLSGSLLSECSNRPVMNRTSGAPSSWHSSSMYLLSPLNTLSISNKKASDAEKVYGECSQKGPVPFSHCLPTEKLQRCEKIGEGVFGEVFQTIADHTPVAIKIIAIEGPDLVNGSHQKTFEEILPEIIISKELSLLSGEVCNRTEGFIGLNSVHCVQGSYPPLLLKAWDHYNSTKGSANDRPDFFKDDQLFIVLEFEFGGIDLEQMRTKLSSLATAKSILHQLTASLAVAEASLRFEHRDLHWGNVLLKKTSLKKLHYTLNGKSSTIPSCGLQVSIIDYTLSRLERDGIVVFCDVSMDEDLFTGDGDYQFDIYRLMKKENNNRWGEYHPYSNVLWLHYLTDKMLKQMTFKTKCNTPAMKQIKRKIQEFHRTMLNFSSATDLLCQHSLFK", "assay_type": "binding", "details": "2000 nM; read-out: Percent Control"}, "[2]": {"target": "JAK1(JH2domain-pseudokinase) (Homo sapiens (Human), UniProt P23458)", "assay_type": "binding", "details": "2000 nM; read-out: Percent Control"}, "[3]": {"target": "JAK2(JH1domain-catalytic) (Homo sapiens (Human), UniProt O60674)", "assay_type": "binding", "details": "2000 nM; read-out: Percent Control"}, "LCK": {"target": "LCK (Homo sapiens (Human), UniProt P06239)", "assay_type": "binding", "details": "2000 nM; read-out: Percent Control"}, "MAP3K2": {"target": "MAP3K2 (Homo sapiens (Human), UniProt Q9Y2U5)", "sequence (Q9Y2U5 whole entry)": "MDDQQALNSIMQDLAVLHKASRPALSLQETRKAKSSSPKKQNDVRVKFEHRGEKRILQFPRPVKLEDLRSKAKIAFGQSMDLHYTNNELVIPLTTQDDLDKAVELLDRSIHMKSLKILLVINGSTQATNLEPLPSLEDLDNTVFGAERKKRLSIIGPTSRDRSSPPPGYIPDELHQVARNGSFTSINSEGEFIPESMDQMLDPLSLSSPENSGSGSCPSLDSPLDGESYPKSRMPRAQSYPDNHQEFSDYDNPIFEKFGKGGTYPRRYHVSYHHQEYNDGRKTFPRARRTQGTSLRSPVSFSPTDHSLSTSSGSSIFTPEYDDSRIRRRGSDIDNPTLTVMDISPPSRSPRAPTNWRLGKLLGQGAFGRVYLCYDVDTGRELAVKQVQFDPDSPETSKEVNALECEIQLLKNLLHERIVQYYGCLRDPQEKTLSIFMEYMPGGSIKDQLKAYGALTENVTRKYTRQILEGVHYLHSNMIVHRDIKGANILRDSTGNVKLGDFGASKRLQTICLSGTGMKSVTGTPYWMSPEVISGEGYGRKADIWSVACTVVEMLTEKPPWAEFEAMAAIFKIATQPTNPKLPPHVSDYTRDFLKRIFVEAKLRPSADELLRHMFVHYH", "assay_type": "binding", "details": "2000 nM; read-out: Percent Control"}, "MAP4K2": {"target": "MAP4K2 (Homo sapiens (Human), UniProt Q12851)", "assay_type": "binding", "details": "2000 nM; read-out: Percent Control"}, "PAK3": {"target": "PAK3 (Homo sapiens (Human), UniProt O75914)", "assay_type": "binding", "details": "2000 nM; read-out: Percent Control"}, "PFTK1 (CDK14)": {"target": "PFTK1 (CDK14) (Homo sapiens (Human), UniProt O94921)", "assay_type": "binding", "details": "2000 nM; read-out: Percent Control"}, "PIK3CA(H1047Y)": {"target": "PIK3CA(H1047Y) (Homo sapiens (Human), UniProt P42336, H1047Y)", "assay_type": "binding", "details": "2000 nM; read-out: Percent Control"}, "PKAC-beta (PRKACB)": {"target": "PKAC-beta (PRKACB) (Homo sapiens (Human), UniProt P22694)", "assay_type": "binding", "details": "2000 nM; read-out: Percent Control"}, "PLK4": {"target": "PLK4 (Homo sapiens (Human), UniProt O00444)", "assay_type": "binding", "details": "2000 nM; read-out: Percent Control"}, "PRKG2": {"target": "PRKG2 (Homo sapiens (Human), UniProt Q13237)", "assay_type": "binding", "details": "2000 nM; read-out: Percent Control"}, "QSK (KIAA0999)": {"target": "QSK (KIAA0999) (Homo sapiens (Human), UniProt Q9Y2K2)", "assay_type": "binding", "details": "2000 nM; read-out: Percent Control"}, "RIPK1": {"target": "RIPK1 (Homo sapiens (Human), UniProt Q13546)", "assay_type": "binding", "details": "2000 nM; read-out: Percent Control"}, "RIPK2": {"target": "RIPK2 (Homo sapiens (Human), UniProt O43353)", "assay_type": "binding", "details": "2000 nM; read-out: Percent Control"}, "ROCK1": {"target": "ROCK1 (Homo sapiens (Human), UniProt Q13464)", "sequence (Q13464 whole entry)": "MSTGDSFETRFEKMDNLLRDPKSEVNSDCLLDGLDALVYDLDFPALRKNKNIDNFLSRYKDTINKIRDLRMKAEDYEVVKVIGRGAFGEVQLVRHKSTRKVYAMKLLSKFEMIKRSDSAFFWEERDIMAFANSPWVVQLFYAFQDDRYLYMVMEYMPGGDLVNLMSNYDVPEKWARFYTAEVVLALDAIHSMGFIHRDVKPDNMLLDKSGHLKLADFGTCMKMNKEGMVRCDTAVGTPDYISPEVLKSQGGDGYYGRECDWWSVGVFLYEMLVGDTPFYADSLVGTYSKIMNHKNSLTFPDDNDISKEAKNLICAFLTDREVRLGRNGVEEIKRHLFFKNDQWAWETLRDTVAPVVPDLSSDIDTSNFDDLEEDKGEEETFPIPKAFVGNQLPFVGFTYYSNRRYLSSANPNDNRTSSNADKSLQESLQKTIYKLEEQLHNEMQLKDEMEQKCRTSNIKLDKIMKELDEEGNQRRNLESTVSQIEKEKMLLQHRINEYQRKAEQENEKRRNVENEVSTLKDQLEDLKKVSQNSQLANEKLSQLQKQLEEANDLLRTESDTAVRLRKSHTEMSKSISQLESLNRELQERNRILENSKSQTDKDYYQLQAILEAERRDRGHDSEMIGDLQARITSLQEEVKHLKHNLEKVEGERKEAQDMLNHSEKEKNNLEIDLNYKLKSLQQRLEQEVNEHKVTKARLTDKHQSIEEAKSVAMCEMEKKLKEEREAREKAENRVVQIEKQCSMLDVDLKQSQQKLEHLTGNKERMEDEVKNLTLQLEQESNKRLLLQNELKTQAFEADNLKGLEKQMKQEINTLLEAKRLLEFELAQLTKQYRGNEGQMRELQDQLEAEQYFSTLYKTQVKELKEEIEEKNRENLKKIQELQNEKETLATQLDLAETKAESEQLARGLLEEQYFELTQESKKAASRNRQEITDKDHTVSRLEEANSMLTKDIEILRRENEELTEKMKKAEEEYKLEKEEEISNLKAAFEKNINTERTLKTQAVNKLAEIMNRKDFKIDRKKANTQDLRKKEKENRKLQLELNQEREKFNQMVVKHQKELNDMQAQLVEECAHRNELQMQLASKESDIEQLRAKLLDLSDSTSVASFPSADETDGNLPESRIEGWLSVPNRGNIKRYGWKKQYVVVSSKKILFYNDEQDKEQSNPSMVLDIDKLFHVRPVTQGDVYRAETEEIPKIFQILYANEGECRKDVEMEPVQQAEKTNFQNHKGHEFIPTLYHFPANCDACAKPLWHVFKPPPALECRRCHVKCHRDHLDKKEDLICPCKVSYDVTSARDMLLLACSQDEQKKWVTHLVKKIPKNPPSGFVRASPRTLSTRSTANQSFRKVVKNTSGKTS", "assay_type": "binding", "details": "2000 nM; read-out: Percent Control"}, "[4]": {"target": "RPS6KA4(Kin.Dom.2-C-terminal) (Homo sapiens (Human), UniProt O75676)", "assay_type": "binding", "details": "2000 nM; read-out: Percent Control"}, "[5]": {"target": "RSK1(Kin.Dom.2-C-terminal) (RPS6KA1) (Homo sapiens (Human), UniProt Q15418)", "assay_type": "binding", "details": "2000 nM; read-out: Percent Control"}, "[6]": {"target": "RSK3(Kin.Dom.1-N-terminal) (RPS6KA2) (Homo sapiens (Human), UniProt Q15349)", "assay_type": "binding", "details": "2000 nM; read-out: Percent Control"}, "TAOK2": {"target": "TAOK2 (Homo sapiens (Human), UniProt Q9UL54)", "assay_type": "binding", "details": "2000 nM; read-out: Percent Control"}, "TBK1": {"target": "TBK1 (Homo sapiens (Human), UniProt Q9UHD2)", "assay_type": "binding", "details": "2000 nM; read-out: Percent Control"}},
  "data": [
    {"smiles": "CN1CCN(C(=O)c2ccc3cc(CCNc4ccnc5ccc(C#N)cc45)ccc3c2)CC1", "note": "[compound 6148, 4-((2-(6-(4-methylpiperazine-1-carbonyl)naphthalen-2-yl)ethyl)amino)quinoline-6-carbonitrile]", "values": [
      {"measurement": "remaining binding at 2 µM", "setting": "CAMK2D", "value": 94, "unit": "%"},
      {"measurement": "remaining binding at 2 µM", "setting": "CDK11 (CDK19)", "value": 13, "unit": "%"},
      {"measurement": "remaining binding at 2 µM", "setting": "CDK8", "value": 1.3, "unit": "%"},
      {"measurement": "remaining binding at 2 µM", "setting": "CDK9", "value": 97, "unit": "%"},
      {"measurement": "remaining binding at 2 µM", "setting": "CSF1R", "value": 85, "unit": "%"},
      {"measurement": "remaining binding at 2 µM", "setting": "CSNK1A1L", "value": 88, "unit": "%"},
      {"measurement": "remaining binding at 2 µM", "setting": "DMPK2 (CDC42BPG)", "value": 83, "unit": "%"},
      {"measurement": "remaining binding at 2 µM", "setting": "EGFR(G719C)", "value": 93, "unit": "%"},
      {"measurement": "remaining binding at 2 µM", "setting": "[1]", "value": 77, "unit": "%"},
      {"measurement": "remaining binding at 2 µM", "setting": "EPHA5", "value": 97, "unit": "%"},
      {"measurement": "remaining binding at 2 µM", "setting": "EPHA6", "value": 79, "unit": "%"},
      {"measurement": "remaining binding at 2 µM", "setting": "EPHB3", "value": 81, "unit": "%"},
      {"measurement": "remaining binding at 2 µM", "setting": "ERBB3", "value": 76, "unit": "%"},
      {"measurement": "remaining binding at 2 µM", "setting": "ERBB4", "value": 95, "unit": "%"},
      {"measurement": "remaining binding at 2 µM", "setting": "FAK (PTK2)", "value": 89, "unit": "%"},
      {"measurement": "Percent Control", "setting": "FLT3(ITD, D835V)", "value": 55, "unit": "%"},
      {"measurement": "Percent Control", "setting": "FLT3(ITD, F691L)", "value": 59, "unit": "%"},
      {"measurement": "remaining binding at 2 µM", "setting": "GRK7", "value": 87, "unit": "%"},
      {"measurement": "remaining binding at 2 µM", "setting": "HASPIN (GSG2)", "value": 29, "unit": "%"},
      {"measurement": "remaining binding at 2 µM", "setting": "[2]", "value": 58, "unit": "%"},
      {"measurement": "remaining binding at 2 µM", "setting": "[3]", "value": 56, "unit": "%"},
      {"measurement": "remaining binding at 2 µM", "setting": "LCK", "value": 92, "unit": "%"},
      {"measurement": "remaining binding at 2 µM", "setting": "MAP3K2", "value": 68, "unit": "%"},
      {"measurement": "remaining binding at 2 µM", "setting": "MAP4K2", "value": 29, "unit": "%"},
      {"measurement": "remaining binding at 2 µM", "setting": "PAK3", "value": 98, "unit": "%"},
      {"measurement": "remaining binding at 2 µM", "setting": "PFTK1 (CDK14)", "value": 98, "unit": "%"},
      {"measurement": "remaining binding at 2 µM", "setting": "PIK3CA(H1047Y)", "value": 91, "unit": "%"},
      {"measurement": "remaining binding at 2 µM", "setting": "PKAC-beta (PRKACB)", "value": 100, "unit": "%"},
      {"measurement": "remaining binding at 2 µM", "setting": "PLK4", "value": 90, "unit": "%"},
      {"measurement": "remaining binding at 2 µM", "setting": "PRKG2", "value": 84, "unit": "%"},
      {"measurement": "remaining binding at 2 µM", "setting": "QSK (KIAA0999)", "value": 55, "unit": "%"},
      {"measurement": "remaining binding at 2 µM", "setting": "RIPK1", "value": 100, "unit": "%"},
      {"measurement": "remaining binding at 2 µM", "setting": "RIPK2", "value": 100, "unit": "%"},
      {"measurement": "remaining binding at 2 µM", "setting": "ROCK1", "value": 52, "unit": "%"},
      {"measurement": "remaining binding at 2 µM", "setting": "[4]", "value": 62, "unit": "%"},
      {"measurement": "remaining binding at 2 µM", "setting": "[5]", "value": 97, "unit": "%"},
      {"measurement": "remaining binding at 2 µM", "setting": "[6]", "value": 100, "unit": "%"},
      {"measurement": "remaining binding at 2 µM", "setting": "TAOK2", "value": 77, "unit": "%"},
      {"measurement": "remaining binding at 2 µM", "setting": "TBK1", "value": 88, "unit": "%"}
    ]}
  ]
}
